{"source": "patent US11026875B2", "about": "“Skin restoration product” (Givaudan SA, priority 2016, dated 2021)", "test_system": "normal human dermal fibroblasts (NHFs)", "test": "N-sulfated GAG (heparan sulfate) synthesis (production + liberation) by normal human dermal fibroblasts", "assay_type": "cell-based", "conditions": "72 h, cells pellets + supernatants, reported to total proteins, composition at 1 mM", "experimental": "The composition was applied at 0.5 and 1 mM to normal human dermal fibroblasts (NHFs) over a period of 72 hours. Normal human fibroblasts (NHFs), were isolated from the skin dermis of Caucasian women donors (plastic surgery). Cells were seeded at 80 000 fibroblasts/well in 24-wells plates and were left to adhere for 24 hours at 37° C./5% CO2 in complete DMEM (Dulbecco's Modified Eagle Medium) (with antibiotics and FBS, fetal bovine serum).\nThe cells were then treated with the composition in non-supplemented medium (without FBS) for 72 hours and incubated at 37° C./5% CO2, and then total sGAG (sulfated Glycosaminoglycans) and HS (Heparan sulfate, or N-sulfated GAG) were dosed in culture supernatants and cells pellets (total proteins were dosed in cells pellets). Each product concentration was tested in duplicate. Furthermore, dosages were reported as a proportion of total amount of proteins. At the end of treatment, supernatants were collected. Cells were lysed in a papain containing buffer (Papaya latex Sigma P3125). Cells extracts were collected and centrifuged. Supernatants and cells pellets were dosed for sGAG, HS, or total proteins.\nsGAG and HS dosage principles: Total sulfated GAG (sGAG), were dosed using the Blyscan™ sGAG Assay kit (Biocolor B1000 or B3000). The Blyscan™ assay is a quantitative dye-binding method for the analysis of sulfated proteoglycans and glycosaminoglycans (sGAG). The dye label used in the assay is 1,9-dimethylmethylene blue and the dye is employed under conditions that provide a specific label for the sulfated polysaccharide component of proteoglycans or the protein free sulfated glycosaminoglycan chains. The method consists of adding a specific blue dye reagent to an aliquot of supernatants or cells pellets which makes sGAG precipitate (a complex dye-sGAG is formed and precipitates out from the soluble unbound dye).\nCentrifugation permitted the collection of a pellet of precipitate at the tube bottom. After having carefully drained the dye, the pellet was solubilized in a dissociation reagent (5-10% Sodium dodecyl sulphate). Absorbance was read at 656 nm in duplicate, in a 96-wells microplate. […] After this reaction, O-sGAG level can be measured using the protocol as normal, and N-sulfated content was subsequently calculated from the difference between the total sGAG value (determined earlier) and the O-sGAG content.\nTotal proteins dosage principle: Total proteins dosage in cells pellets was performed in parallel by colorimetric method based on bicinchoninic acid (BCA). […] The amount of reduction and of BCA-Cu^+ complex is proportional to the protein concentration present and is quantified by spectrophotometric lecture at 570 nm. […]"}
{"substance": "TGF beta: transforming growth factor beta, used as positive control", "values": [{"measurement": "N-sulfated GAG synthesis improvement", "setting": "donor one fibroblasts", "value": "+43%"}, {"measurement": "N-sulfated GAG synthesis improvement", "setting": "donor one fibroblasts, listed as TGFβ", "value": "+43%"}, {"measurement": "N-sulfated GAG synthesis improvement", "setting": "donor two fibroblasts", "value": "+24%"}, {"measurement": "N-sulfated GAG synthesis improvement", "setting": "donor two fibroblasts, listed as TGFβ", "value": "+24%"}]}
